Experimental data published in patent publication US20210259251A1, “[…] PREVENT AND CONTROL FUNGAL PATHOGENS” (priority 2018, published 2021).
“Also recorded” adds a separate entry of the source. Where two headings read alike, the source gives them in different places.

Assays:
[1] = tested on: Botrytis cinerea; test: In vitro fungal bioassay, fungitoxic activity; conditions: for fungitoxic activity against Botrytis cinerea (in words): in vitro, dose range between 10 and 1500 μM; for ED95 Botrytis cinerea: effect in 95% of the population, maximal concentration 1500 μM
[2] = tested on: Fusarium oxysporum; test: In vitro fungal bioassay, fungitoxic activity; conditions: maximal concentration 1500 μM; for fungitoxic activity against Fusarium oxysporum (in words): in vitro; for ED95 F. oxysporum: Table 2, effect in 95% of the population
[3] = tested on: Septoria tritici; test: In vitro antifungal assay (mycelial growth on PDA); conditions: Zymoseptoria tritici, read-out: ED50
[4] = tested on: Colletotrichum dematium; test: In vitro antifungal assay (mycelial growth on PDA); conditions: read-out: ED50
[5] = tested on: Serpula lacrymans; test: In vitro antifungal assay (mycelial growth on PDA); conditions: read-out: ED50
[6] = tested on: Hemenoscyphus fraxineus; test: In vitro antifungal assay (mycelial growth on PDA); conditions: read-out: ED50
[7] = tested on: Alternaria radicina; test: Fungitoxic activity of combined isothiocyanates, 48 well plates, synergy (CompuSyn)
Experimental: (§1) Applicants examined fungitoxic activities of combined isothiocyanates in three necrotrophic fungal species, i.e. Alternaria radicina (class: Dothideomycetes; order: Pleosporales; host: carrot), Fusarium gramineum (class: Sordariomycetes; order: Hypocreales; host: cereals) and Plectosphaerella cucumerina (class: Sordariomycetes; order: Glomerellales; host: tomato and cucurbits).
(§2) Fungitoxic activities were tested in 48 well tissue culture plates. […] Synergistic fungitoxic activities was then estimated as in Chou (2006), and the CompuSyn software (www.combosyn.com) was used to determine the Combination Index (CI) for combinations of two molecules and the presence of synergism (CI<1).

[8] = tested on: Fusarium gramineum; test: as above
Experimental: as §1, §2

[9] = tested on: Plectosphaerella cucumerina; test: as above
Experimental: as §1, §2

[10] = tested on: Phytophthora cactorum; test: microbe, parasite or virus in culture; type: cell-based
[11] = tested on: Fusarium gramineum; test: microbe, parasite or virus in culture; type: cell-based; conditions: for EC50: read-out: ED50 F. gramineum
[12] = tested on: Phytophthora infestans; test: microbe, parasite or virus in culture; type: cell-based; conditions: read-out: ED50 P. infestans
[13] = tested on: Guignardia bidwellii; test: In vitro fungal bioassay, fungitoxic activity; type: cell-based; conditions: Phyllosticta ampelicida; Table 5; unit from the concentration series of the method; read-out: ED50 G. bidwellii
[14] = 168 h, read-out: EC50 Molecule 2
[15] = Table 3, maximal dosage 1500 μM
[16] = 168 h, read-out: EC50 Molecule 2, Alternaria radicina, second molecule alone, range 10-850 μM, 850 = no fungitoxic activity in the tested range
[17] = read-out: EC50 Molecule 1, Alternaria radicina, first molecule alone, range 10-850 μM, 850 = no fungitoxic activity in the tested range
[18] = 168 h, read-out: EC50 Molecule 1
[19] = Fusarium, Table 5, unit from the concentration series of the method

## CS(=O)(=O)CCCCCCCN=C=S [7-methylsulfonyl-heptyl isothiocyanate]
[1]
  fungitoxic activity against Botrytis cinerea (in words): no fungitoxic activity; also recorded: non-active
[2]
  fungitoxic activity against Fusarium oxysporum (in words): non-active
[3]
  EC50: 350 µM
[4]
  EC50: 650 µM
[5]
  EC50: 150 µM
[6]
  EC50: 770 µM

## C[S+]([O-])CCCN=C=S (centres unmarked) [Molecule 3MSOH, 1-Isothiocyanato-3-(methylsulfinyl)-propane]
[7]; [14]
  EC50: 786 µM
[8]; [14]
  EC50: 525 µM
[8]; read-out: EC50 Molecule 2
  EC50: 525 µM
[9]; [14]
  EC50: 627 µM

## CS(=O)(=O)CCCN=C=S [Molecule 3MSOOH, 1-Isothiocyanato-3-(methylsulfonyl)-propane]
[7]; [14]
  EC50: 469 µM
[8]; [14]
  EC50: 387 µM
[8]; read-out: EC50 Molecule 2
  EC50: 387 µM
[9]; [14]
  EC50: 536 µM

## C[S+]([O-])CCCCN=C=S (centres unmarked) [Molecule 4MSOH, 1-Isothiocyanato-4-(methylsulfinyl)-butane]
[10]
  ED50 P. cactorum: <1500 µM
[11]; Fusarium
  EC50: 628 µM

## C[S+]([O-])CCCCCN=C=S (centres unmarked) [Molecule 5MSOH, 1-isothiocyanato-5-(methylsulfinyl)-pentane]
[1]; Table 4
  ED95 Botrytis cinerea: <1500 µM
[1]
  fungitoxic activity against Botrytis cinerea (in words): none of these single compounds revealed fungitoxic effect

## CS(=O)(=O)CCCCCN=C=S [Molecule 5MSOOH, 1-Isothiocyanato-5-(methylsulfonyl)-pentane]
[1]; Table 4
  ED95 Botrytis cinerea: <1500 µM
[1]
  fungitoxic activity against Botrytis cinerea (in words): none of these single compounds revealed fungitoxic effect

## CS(=O)(=O)CCCCCCN=C=S [Molecule 6MSOOH, 1-Isothiocyanato-6-(methylsulfonyl)-hexane]
[10]; [15]
  ED50 P. cactorum: <1500 µM
[11]; [15]
  EC50: <1500 µM
[11]; in the dosage of 1500 μM
  fungistatic effect on Fusarium gramineum (in words): not fungistatic

## C[S+]([O-])CCCCCCCN=C=S (centres unmarked) [Molecule 7MSOH, 1-Isothiocyanato-7-(methylsulfinyl)-heptane]
[7]; [16]
  EC50: 537 µM
[8]; [14]
  EC50: 586 µM
[8]; read-out: EC50 Molecule 2
  EC50: 586 µM
[9]; [14]
  EC50: 337 µM

## C[S+]([O-])CCCCc1cccc(CN=C=S)c1 (centres unmarked) [Molecule 8ASOH, 1-(isothiocyanatomethyl)-3-(4-(methylsulfinyl)butyl)benzene]
[7]; [17]
  EC50: 723 µM

## CS(=O)(=O)CCCCc1cccc(CN=C=S)c1 [Molecule 8ASOOH, 1-(isothiocyanatomethyl)-3-(4-(methylsulfonyl)butyl)benzene]
[7]; [16]
  EC50: > 850 µM

## C[S+]([O-])CCCCC/C=C/CN=C=S (centres unmarked) [Molecule 8CSOH, (E)-1-isothiocyanato-8-(methylsulfinyl)oct-2-ene]
[7]; [17]
  EC50: 472 µM
[7]; read-out: EC50 Molecule 1, first molecule alone, range 10-850 μM, 850 = no fungitoxic activity in the tested range
  EC50: 704 µM
[8]; [18]
  EC50: > 850 µM
[8]; read-out: EC50 Molecule 1
  EC50: > 850 µM
[9]; read-out: EC50 Molecule 1
  EC50: 273 µM

## CC[S+]([O-])CCCCCCCCN=C=S (centres unmarked) [Molecule 8ESOH, 1-(ethylsulfinyl)-8-isothiocyanatooctane]
[7]; [16]
  EC50: 472 µM
[8]; [18]
  EC50: 533 µM
[8]; read-out: EC50 Molecule 1
  EC50: 533 µM

## CCS(=O)(=O)CCCCCCCCN=C=S [Molecule 8ESOOH, 1-(ethylsulfonyl)-8-isothiocyanatooctane]
[7]; [16]
  EC50: > 850 µM

## C[S+]([O-])CCCCCCCCN=C=S (centres unmarked) [Molecule 8MSOH, 1-Isothiocyanato-8-(methylsulfinyl)-octane]
[11]; [19]
  EC50: 292 µM
[12]
  EC50: 26.4 µM
[13]
  EC50: 30.4 µM
[1]; Table 2
  ED95 Botrytis cinerea: <1500 µM
[1]; Table 4
  ED95 Botrytis cinerea: <1500 µM
[1]
  fungitoxic activity against Botrytis cinerea (in words): no fungitoxic effect; also recorded: none of these single compounds revealed fungitoxic effect
[2]
  ED95 F. oxysporum: <1500 µM
  fungitoxic activity against Fusarium oxysporum (in words): no fungitoxic effect
[8]; [18]
  EC50: 317 µM
[8]; [14]
  EC50: 317 µM
[8]; read-out: EC50 Molecule 1
  EC50: 317 µM

## CS(=O)(=O)CCCCCCCCN=C=S [Molecule 8MSOOH, 1-Isothiocyanato-8-(methylsulfonyl)-octane]
[10]; Phytophthora cactorum, read-out: ED50 P. cactorum
  EC50: 628 µM
[11]; Fusarium, Table 3, maximal dosage 1500 μM
  EC50: 464 µM
[11]; [19]
  EC50: 22.2 µM
[12]
  EC50: 350 µM
[13]
  EC50: 464 µM
[1]; Table 2
  ED95 Botrytis cinerea: <1500 µM
[1]; Table 4
  ED95 Botrytis cinerea: <1500 µM
[1]
  fungitoxic activity against Botrytis cinerea (in words): no fungitoxic effect; also recorded: none of these single compounds revealed fungitoxic effect
[2]
  ED95 F. oxysporum: <1500 µM
  fungitoxic activity against Fusarium oxysporum (in words): no fungitoxic effect
[8]; [18]
  EC50: > 850 µM
[9]; read-out: EC50 Molecule 1
  EC50: > 850 µM

## CS(=O)(=O)CCCCCCCCC#N [Molecule 8MSOON, 8-(methylsulfonyl)octylnitrile]
[1]; Table 2
  ED95 Botrytis cinerea: <1500 µM
[2]
  ED95 F. oxysporum: <1500 µM

## C[S+]([O-])CCCCCCCCCN=C=S (centres unmarked) [Molecule 9MSOH, 1-Isothiocyanato-9-(methylsulfinyl)-nonane]
[8]; [14]
  EC50: 553 µM

## CS(=O)(=O)CCCCCCCCCN=C=S [Molecule 9MSOOH, 1-Isothiocyanato-9-(methylsulfonyl)-nonane]
[8]; [14]
  EC50: > 850 µM
